For the test, the target named is T1, Human recombinant EE-tagged PDGFRβ (Homo sapiens, UniProt P09619).
T1 construct: made in house; host or cells: Sf9 cells
T1 sequence (P09619 33-1106): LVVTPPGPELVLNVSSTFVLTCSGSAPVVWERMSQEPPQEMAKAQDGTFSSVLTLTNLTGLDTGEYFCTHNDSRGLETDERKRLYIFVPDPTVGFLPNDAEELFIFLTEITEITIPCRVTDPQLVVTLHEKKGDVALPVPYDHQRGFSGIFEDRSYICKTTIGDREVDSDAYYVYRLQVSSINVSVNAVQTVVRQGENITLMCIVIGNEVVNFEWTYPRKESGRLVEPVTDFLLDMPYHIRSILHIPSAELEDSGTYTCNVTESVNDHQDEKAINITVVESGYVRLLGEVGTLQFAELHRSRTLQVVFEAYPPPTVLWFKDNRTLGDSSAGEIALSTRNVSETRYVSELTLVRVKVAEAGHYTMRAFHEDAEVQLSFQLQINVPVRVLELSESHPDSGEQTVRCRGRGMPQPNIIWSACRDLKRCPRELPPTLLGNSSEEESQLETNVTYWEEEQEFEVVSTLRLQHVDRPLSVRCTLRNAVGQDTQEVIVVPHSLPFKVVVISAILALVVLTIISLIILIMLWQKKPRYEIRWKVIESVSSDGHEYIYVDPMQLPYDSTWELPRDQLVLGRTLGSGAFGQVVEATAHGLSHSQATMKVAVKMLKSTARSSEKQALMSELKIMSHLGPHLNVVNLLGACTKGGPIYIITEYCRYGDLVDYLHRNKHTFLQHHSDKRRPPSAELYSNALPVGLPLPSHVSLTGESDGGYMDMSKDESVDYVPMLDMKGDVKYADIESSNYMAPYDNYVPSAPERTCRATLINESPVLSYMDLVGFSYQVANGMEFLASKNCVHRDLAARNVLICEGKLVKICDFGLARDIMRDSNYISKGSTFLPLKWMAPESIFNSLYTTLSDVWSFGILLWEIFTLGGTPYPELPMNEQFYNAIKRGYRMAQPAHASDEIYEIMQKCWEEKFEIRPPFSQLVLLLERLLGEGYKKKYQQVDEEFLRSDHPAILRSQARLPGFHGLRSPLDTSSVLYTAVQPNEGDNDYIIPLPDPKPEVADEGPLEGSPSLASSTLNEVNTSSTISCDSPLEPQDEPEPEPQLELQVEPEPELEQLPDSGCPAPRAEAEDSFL
The test is described as follows: PDGFRβ IMAP Kinase Assay (fluorescence polarization). The format is biochemical. The following applies: Kinase Enzyme Inhibition Assay; IMAP FP; FITC-labeled peptide substrate, ATP; 60 minutes at room temperature. An excerpt:
The assay uses IMAP Fluorescence polarization (FP) assay platform based on the high affinity binding of phosphate by immobilized metal coordination complexes. The substrate used in this assay is a Fitc labeled peptide: FITC-ALTSNQEYLDLSMPL. Upon substrate peptide's phosphorylation, the IMAP binding reagent complexes with phosphate groups on phosphopeptides generated in the PDGFRβ reaction, which causes a change in the rate of the molecular motion of the peptide, and results in an increase in the FP values.
• Enzyme: Human recombinant EE-tagged PDGFRβ, expressed in Sf9 cells (stock concentration 74.5 μM, from Protein Biochemistry, RDT); store at −80° C. • Substrate: Synthesized Fitc labeled peptide: FITC-ALTSNQEYLDLSMPL; store at −20° C. • Positive Control Staurosporine (1 mM stock in DMSO, Calbiochem) • Robotic System Workstation: Tomtec Quadra • Reader: Acquest 384.1356 (Molecular Devices); FP reading method • Assay Plate: BD Falcon 30-μL 384 assay plate (Cat # 353972), and Costar 384 black plate (Cat # 3710) Assay Procedures: (1) Prepare Assay Buffer-MOPS Buffer: 20 mM MOPS (Teknova) pH 7.1, 5 mM sodium acetate, 6.25 mM MgCl2, 0.5 mM EDTA, 1 mM DTT, 0.04 mM NaVO4, 0.02% BSA. (2) Prepare Substrate Mix containing peptide (1 μM) and ATP (48.6 μM) in assay buffer. Add 8 μL of Substrate Mix in BD Falcon assay plates. (3) Prepare PDGFRβ (0.2 μM) in assay buffer. (4) Dilute compounds and positive control in DMSO (40 fold, 4-pt in series). Add 18 μL/well of assay buffer into 384 polypropylene compound plates containing 2 μL of compound solution in each well, mix and transfer 4 μl/well of diluted solution into the BD Falcon assay plates containing 8 μL of Substrate Mix (step 2) in each well. Then add 4 μl/well of PDGFRβ solution (step 3) in all wells except blank wells. Add 4 μl/well of assay buffer into blank wells. (5) Incubate at room temperature for 60 minutes. (6) Prepare 1:400 IMAP bead mix following the instruction given in the IMAP Bead Binding System Kit (Molecular Devices), and add 30 μl/well of IMAP bead mix in Costar 384 black plates. (7) Transfer 2 μl/well of reaction solution (step 4-5) into Costar 384 black plates containing 30 μl/well of bead mix (step 6). (8) Incubate at RT for 2 hours. (9) Read FP values at 485 nm and 530 nm on Acquest.
Kinase Enzyme Inhibition Assay (IC50)
(In general: In fluorescence polarisation assays a small probe gives low polarisation when free and higher when bound to something large.)
For orientation: IC50 means the concentration that gives 50% inhibition. `O=C(Nc1cccc(OCc2csc3c(C(=O)NCCO)cncc23)c1)c1ccccc1` [Example 7, 3-(3-Benzoylamino-phenoxymethyl)-thieno[3,2-c]pyridine-7-carboxylic acid (2-hydroxy-ethyl)-amide]: the IC50 amounted to 990 nM.

With `CCOC(=O)c1cncc2c(COc3cccc(NC(=O)c4ccc(F)cc4)c3)csc12` [Example 8, 3-[3-(4-Fluoro-benzoylamino)-phenoxymethyl]-thieno[3,2-c]pyridine-7-carboxylic acid ethyl ester], the IC50 was determined as 340 nM.

Consider `CCOC(=O)c1cncc2c(COc3cccc(NC(=O)c4cccc(OC)c4)c3)csc12` [Example 13, 3-[3-(3-Methoxy-benzoylamino)-phenoxymethyl]-thieno[3,2-c]pyridine-7-carboxylic acid ethyl ester], for which the IC50 came out at 440 nM.

Turning to `O=C(Nc1cccc(OCc2csc3c(C(=O)NCCO)cncc23)c1)c1cccc(Cl)c1` [Example 16, 3-[3-(3-Chloro-benzoylamino)-phenoxymethyl]-thieno[3,2-c]pyridine-7-carboxylic acid (2-hydroxy-ethyl)-amide], the concentration for half-maximal inhibition (IC50) came to 113 nM.

With `COc1cccc(C(=O)Nc2ccc(C)c(OCc3csc4c(C(=O)NCCO)cncc34)c2)c1` [Example 31, 3-[5-(3-Methoxy-benzoylamino)-2-methyl-phenoxymethyl]-thieno[3,2-c]pyridine-7-carboxylic acid (2-hydroxy-ethyl)-amide], the concentration for half-maximal inhibition (IC50) was below 20000 nM.

Values taken from patent publication US7994321B2, “Substituted thieno[3,2-C]pyridine-7-carboxylic acid derivatives” (Hoffmann-La Roche Inc., priority 2006, dated 2011).
